Values after ≈ are worked out from the molar mass of the structure shown. Active and inactive are the calls of the source. No cut-off for these calls is given here.
What was measured:
[1] = test system: Streptococcus pneumoniae; assay: Antibacterial activity against Streptococcus pneumoniae 994 expressing mef gene by NCCLS method; type: functional
[2] = test system: Streptococcus pneumoniae; assay: Antibacterial activity against telethromycin-resistant Streptococcus pneumoniae 217 expressing erm gene by NCCLS method; type: functional
[3] = test system: Haemophilus influenzae; assay: Antibacterial activity against Haemophilus influenzae 38 by NCCLS method; type: functional
[4] = test system: Streptococcus pneumoniae; assay: Antibacterial activity against telethromycin-resistant Streptococcus pneumoniae 3489 expressing erm gene by NCCLS method; type: functional
[5] = test system: Moraxella catarrhalis; assay: Antibacterial activity against Moraxella catarrhalis 8176 by NCCLS method; type: functional
[6] = test system: Streptococcus pneumoniae; assay: Antibacterial activity against telethromycin-resistant Streptococcus pneumoniae 162 expressing erm gene by NCCLS method; type: functional
[7] = test system: Streptococcus pneumoniae; assay: Antibacterial activity against Streptococcus pneumoniae 3579 expressing erm gene by NCCLS method; type: functional
[8] = test system: Streptococcus pneumoniae; assay: Antibacterial activity against telethromycin-resistant Streptococcus pneumoniae 5099 expressing erm gene by NCCLS method; type: functional
[9] = test system: Streptococcus pneumoniae; assay: Antibacterial activity against telethromycin-resistant Streptococcus pneumoniae 3488 expressing erm gene by NCCLS method; type: functional
[10] = test system: Streptococcus pyogenes; assay: Antibacterial activity against Streptococcus pyogenes 19615 by NCCLS method; type: functional
[11] = test system: Streptococcus pneumoniae; assay: Antibacterial activity against telethromycin-resistant Streptococcus pneumoniae 5051 expressing erm gene by NCCLS method; type: functional
[12] = test system: Streptococcus pneumoniae; assay: Antibacterial activity against telethromycin-resistant Streptococcus pneumoniae 3271 expressing erm gene by NCCLS method; type: functional
[13] = test system: Streptococcus pneumoniae; assay: Antibacterial activity against telethromycin-resistant Streptococcus pneumoniae 2840 expressing erm gene by NCCLS method; type: functional
[14] = test system: Streptococcus pneumoniae; assay: Antibacterial activity against Streptococcus pneumoniae 49619 by NCCLS method; type: functional
[15] = test system: Streptococcus pneumoniae; assay: Antibacterial activity against telethromycin-resistant Streptococcus pneumoniae AB14 expressing erm gene by NCCLS method; type: functional
[16] = test system: Streptococcus pneumoniae; assay: Antibacterial activity against telethromycin-resistant Streptococcus pneumoniae B739 expressing erm gene by NCCLS method; type: functional
[17] = test system: Streptococcus pneumoniae; assay: Antibacterial activity against Streptococcus pneumoniae 6303 by NCCLS method; type: functional
[18] = test system: Streptococcus pneumoniae; assay: Antibacterial activity against telethromycin-resistant Streptococcus pneumoniae 3390 expressing erm gene by NCCLS method; type: functional
[19] = test system: Streptococcus pneumoniae; assay: Antibacterial activity against Streptococcus pneumoniae 3579 expressing erm gene infected in mouse systemic infection model; type: functional, organism-based
[20] = test system: Streptococcus pneumoniae; assay: Antibacterial activity against telethromycin-resistant Streptococcus pneumoniae 757 expressing erm gene by NCCLS method; type: functional
[21] = test system: Streptococcus pneumoniae; assay: Antibacterial activity against Streptococcus pneumoniae by NCCLS method; type: functional

SMILES: C=CCN(C)[C@H]1C[C@@H](C)O[C@@H](O[C@@H]2[C@@H](C)[C@H](OC(=O)Cc3ccccn3)[C@@H](C)C(=O)O[C@H](CC)[C@@]3(C)OC(=O)N(CCCCn4cnc5ncccc54)[C@@H]3[C@@H](C)C(=O)[C@H](C)C[C@@]2(C)OC)[C@@H]1O
- MIC [1]: 0.5 µg/mL (≈ 0.536 µM)
- MIC [2]: 0.125 µg/mL (≈ 0.134 µM)
- MIC [3]: < 0.06 µg/mL
- MIC [4]: 0.5 µg/mL (≈ 0.536 µM)
- MIC [5]: 0.25 µg/mL (≈ 0.268 µM)
- MIC [6]: 1 µg/mL (≈ 1.07 µM)
- MIC [7]: 0.5 µg/mL (≈ 0.536 µM)
- MIC [8]: 0.06 µg/mL (≈ 0.0643 µM)
- MIC [9]: 0.125 µg/mL (≈ 0.134 µM)
- MIC [10]: 0.06 µg/mL (≈ 0.0643 µM)
- MIC [11]: 0.125 µg/mL (≈ 0.134 µM)
- MIC [12]: 0.5 µg/mL (≈ 0.536 µM)
- MIC [13]: 0.5 µg/mL (≈ 0.536 µM)
- MIC [14]: 0.06 µg/mL (≈ 0.0643 µM)
- MIC [15]: 0.06 µg/mL (≈ 0.0643 µM)
- MIC [16]: 0.5 µg/mL (≈ 0.536 µM)
- MIC [17]: 0.06 µg/mL (≈ 0.0643 µM)
- MIC [18]: 0.125 µg/mL (≈ 0.134 µM)
- Activity [19]: Active
- MIC [20]: 0.25 µg/mL (≈ 0.268 µM)

SMILES: C=CCN(C)[C@H]1C[C@@H](C)O[C@@H](O[C@@H]2[C@@H](C)[C@H](OC(=O)Cc3ccccn3)[C@@H](C)C(=O)O[C@H](CC)[C@@]3(C)OC(=O)N(CCCCn4cnc(-c5ccc(N)nc5)c4)[C@@H]3[C@@H](C)C(=O)[C@H](C)C[C@@]2(C)OC)[C@@H]1O
- MIC [1]: 0.125 µg/mL (≈ 0.128 µM)
- MIC [2]: 0.06 µg/mL (≈ 0.0616 µM)
- MIC [4]: 0.25 µg/mL (≈ 0.257 µM)
- MIC [5]: 0.125 µg/mL (≈ 0.128 µM)
- MIC [6]: 0.5 µg/mL (≈ 0.513 µM)
- MIC [7]: 0.25 µg/mL (≈ 0.257 µM)
- MIC [8]: 0.03 µg/mL (≈ 0.0308 µM)
- MIC [9]: 0.03 µg/mL (≈ 0.0308 µM)
- MIC [10]: 2 µg/mL (≈ 2.05 µM)
- MIC [11]: 0.03 µg/mL (≈ 0.0308 µM)
- MIC [12]: 0.25 µg/mL (≈ 0.257 µM)
- MIC [13]: 0.25 µg/mL (≈ 0.257 µM)
- MIC [14]: 0.06 µg/mL (≈ 0.0616 µM)
- MIC [15]: 0.03 µg/mL (≈ 0.0308 µM)
- MIC [16]: 0.125 µg/mL (≈ 0.128 µM)
- MIC [17]: 0.06 µg/mL (≈ 0.0616 µM)
- MIC [18]: 0.06 µg/mL (≈ 0.0616 µM)
- Activity [19]: Active
- MIC [20]: 0.06 µg/mL (≈ 0.0616 µM)

SMILES: CC[C@H]1OC(=O)[C@H](C)[C@@H](O[C@H]2C[C@@](C)(OC)[C@@H](O)[C@H](C)O2)[C@H](C)[C@@H](O[C@@H]2O[C@H](C)C[C@H](N(C)C)[C@H]2O)[C@](C)(OC)C[C@@H](C)C(=O)[C@H](C)[C@@H](O)[C@]1(C)O [CLARITHROMYCIN]
- MIC [1]: 0.5 µg/mL (≈ 0.668 µM)
- MIC [3]: > 16 µg/mL
- MIC [5]: 4 µg/mL (≈ 5.35 µM)
- MIC [7]: 4 µg/mL (≈ 5.35 µM)
- MIC [10]: 0.125 µg/mL (≈ 0.167 µM)
- MIC [21]: 0.25 µg/mL (≈ 0.334 µM)
- MIC [14]: 0.125 µg/mL (≈ 0.167 µM)
- MIC [17]: 0.25 µg/mL (≈ 0.334 µM)

SMILES: CC[C@H]1OC(=O)[C@H](C)C(=O)[C@H](C)[C@@H](O[C@@H]2O[C@H](C)C[C@H](N(C)C)[C@H]2O)[C@](C)(OC)C[C@@H](C)C(=O)[C@H](C)[C@H]2N(CCCCn3cnc(-c4cccnc4)c3)C(=O)O[C@]12C [TELITHROMYCIN]
- MIC [1]: 0.25 µg/mL (≈ 0.308 µM)
- MIC [2]: 4 µg/mL (≈ 4.93 µM)
- MIC [3]: 1 µg/mL (≈ 1.23 µM)
- MIC [4]: 64 µg/mL (≈ 78.8 µM)
- MIC [5]: 0.25 µg/mL (≈ 0.308 µM)
- MIC [6]: 64 µg/mL (≈ 78.8 µM)
- MIC [7]: 0.25 µg/mL (≈ 0.308 µM)
- MIC [8]: 8 µg/mL (≈ 9.85 µM)
- MIC [9]: 8 µg/mL (≈ 9.85 µM)
- MIC [10]: 0.03 µg/mL (≈ 0.0369 µM)
- MIC [11]: 4 µg/mL (≈ 4.93 µM)
- MIC [12]: 64 µg/mL (≈ 78.8 µM)
- MIC [13]: 64 µg/mL (≈ 78.8 µM)
- MIC [14]: 0.06 µg/mL (≈ 0.0739 µM)
- MIC [15]: 8 µg/mL (≈ 9.85 µM)
- MIC [16]: 64 µg/mL (≈ 78.8 µM)
- MIC [17]: 0.03 µg/mL (≈ 0.0369 µM)
- MIC [18]: 8 µg/mL (≈ 9.85 µM)
- MIC [20]: 32 µg/mL (≈ 39.4 µM)

SMILES: C=CCN(C)[C@H]1C[C@@H](C)O[C@@H](O[C@@H]2[C@@H](C)[C@H](OC(=O)Cc3cccnc3)[C@@H](C)C(=O)O[C@H](CC)[C@@]3(C)OC(=O)N(CCCCn4cnc5ncccc54)[C@@H]3[C@@H](C)C(=O)[C@H](C)C[C@@]2(C)OC)[C@@H]1O
- MIC [1]: 0.06 µg/mL (≈ 0.0643 µM)
- MIC [2]: 0.5 µg/mL (≈ 0.536 µM)
- MIC [3]: 0.125 µg/mL (≈ 0.134 µM)
- MIC [4]: 0.5 µg/mL (≈ 0.536 µM)
- MIC [5]: 0.06 µg/mL (≈ 0.0643 µM)
- MIC [6]: 1 µg/mL (≈ 1.07 µM)
- MIC [7]: 1 µg/mL (≈ 1.07 µM)
- MIC [8]: 0.125 µg/mL (≈ 0.134 µM)
- MIC [9]: 0.25 µg/mL (≈ 0.268 µM)
- MIC [10]: 0.06 µg/mL (≈ 0.0643 µM)
- MIC [11]: 0.25 µg/mL (≈ 0.268 µM)
- MIC [12]: 1 µg/mL (≈ 1.07 µM)
- MIC [13]: 0.5 µg/mL (≈ 0.536 µM)
- MIC [14]: 0.03 µg/mL (≈ 0.0321 µM)
- MIC [15]: 0.125 µg/mL (≈ 0.134 µM)
- MIC [16]: 0.5 µg/mL (≈ 0.536 µM)
- MIC [17]: 0.06 µg/mL (≈ 0.0643 µM)
- MIC [18]: 0.25 µg/mL (≈ 0.268 µM)
- Activity [19]: Active
- MIC [20]: 0.5 µg/mL (≈ 0.536 µM)
